In ChEMBL document CHEMBL1151633, “Biological Activities of Asterosaponins With Special Reference to Structure-Activity Relationships” (J Nat Prod, 1984):
Values after ≈ are worked out from the molar mass of the structure shown. Active and inactive are the calls of the source. No cut-off for these calls is given here.

Tests used:
[1] = test system: Hemicentrotus pulcherrimus; test: Inhibition of first cleavage in sea urchin embryo after 1.5 hrs by microscopy; format: functional
[2] = Toxicity in sea urchin embryo assessed as inhibition of embryo development before morula stage after 24 hrs by microscopy; conditions: hemicentrotus pulcherrimus
Patiria pectinifera [3] = test: Effect on starfish embryo development assessed as abnormal embryo induction at bastula or gastula stage after 24 hrs by lactoorcein staining; format: functional
Patiria pectinifera [4] = test: Inhibition of actin polymerization in starfish during embryogenesis
[5] = Toxicity in rabbit RBC assessed as hemolytic index; format: cell-based, Oryctolagus cuniculus; conditions: erythrocyte
Patiria pectinifera [6] = test: Effect on starfish embryo development assessed as incomplete cytokinesis by lactoorcein staining; format: functional
Patiria pectinifera [7] = test: Effect on starfish embryo development assessed as occurrence of multinuclei by lactoorcein staining; format: functional

CC(C)=CC(=O)C[C@@](C)(O)[C@H]1CC[C@H]2[C@@H]3C[C@H](OC4O[C@H](C)[C@@H](O)[C@H](OC5OC[C@@H](OC6O[C@H](C)[C@@H](O)[C@H](O)[C@H]6OC6O[C@H](C)[C@H](O)[C@H](O)[C@H]6O)[C@H](O)[C@H]5OC5O[C@H](C)[C@@H](O)[C@H](O)[C@H]5O)[C@H]4O)[C@H]4C[C@@H](OS(=O)(=O)[O-])CC[C@]4(C)C3=CC[C@@]21C.[Na+] (stereo not given in full)
ED50 [1]: 50 µg/mL
LD99 [2]: 50 µg/mL
ED50 (Patiria pectinifera [3]): 200 µg/mL
Activity (Patiria pectinifera [4]): Active
HI [5]: < 2420

CC(C)CC(=O)C[C@@](C)(O)[C@H]1CC[C@H]2[C@@H]3C[C@H](OC4O[C@H](C)[C@@H](O)[C@H](OC5OC[C@@H](OC6O[C@H](CO)[C@@H](O)[C@H](O)[C@H]6OC6O[C@H](C)[C@H](O)[C@H](O)[C@H]6O)[C@H](O)[C@H]5OC5O[C@H](C)[C@@H](O)[C@H](O)[C@H]5O)[C@H]4O)[C@H]4C[C@@H](OS(=O)(=O)[O-])CC[C@]4(C)C3=CC[C@@]21C.[Na+] (stereo not given in full)
ED50 [1]: 15 µg/mL
LD99 [2]: 2 µg/mL
ED50 (Patiria pectinifera [3]): 200 µg/mL
Activity (Patiria pectinifera [4]): Active

CC(C)CC(=O)C[C@@](C)(O)[C@H]1CC[C@H]2[C@@H]3C[C@H](OC4O[C@H](C)[C@@H](O)[C@H](OC5OC[C@@H](OC6O[C@H](CO)[C@H](O)[C@H](O)[C@H]6OC6O[C@H](C)[C@H](O)[C@H](O)[C@H]6O)[C@H](O)[C@H]5OC5O[C@H](C)[C@@H](O)[C@H](O)[C@H]5O)[C@H]4O)[C@H]4C[C@@H](OS(=O)(=O)[O-])CC[C@]4(C)C3=CC[C@@]21C.[Na+] (stereo not given in full)
ED50 [1]: 10 µg/mL
LD99 [2]: 5 µg/mL
ED50 (Patiria pectinifera [3]): 100 µg/mL
Activity (Patiria pectinifera [4]): Active
HI [5]: 22000

CC(C)=CC(=O)C[C@@](C)(O)[C@H]1CC[C@H]2[C@@H]3C[C@H](OC4O[C@H](C)[C@@H](O)[C@H](OC5OC[C@@H](OC6O[C@H](C)[C@@H](O)[C@H](O)[C@H]6OC6O[C@H](C)[C@H](O)[C@H](O)[C@H]6O)[C@H](O)[C@H]5OC5O[C@H](C)[C@@H](O)[C@H](O)[C@H]5O)[C@H]4O)[C@H]4C[C@@H](O)CC[C@]4(C)C3=CC[C@@]21C (stereo not given in full)
ED50 [1]: 10 µg/mL (≈ 8.72 µM)
LD99 [2]: 10 µg/mL
ED50 (Patiria pectinifera [3]): 100 µg/mL (≈ 87.2 µM)
Activity (Patiria pectinifera [4]): Active

CC(C)C(C)C(=O)C[C@@](C)(O)[C@H]1CC[C@H]2[C@@H]3C[C@H](OC4O[C@H](C)[C@@H](O)[C@H](OC5OC[C@@H](OC6O[C@H](CO)[C@H](O)[C@H](O)[C@H]6OC6O[C@H](C)[C@H](O)[C@H](O)[C@H]6O)[C@H](O)[C@H]5OC5O[C@H](C)[C@@H](O)[C@H](O)[C@H]5O)[C@H]4O)[C@H]4C[C@@H](OS(=O)(=O)[O-])CC[C@]4(C)C3=CC[C@@]21C.[Na+] (stereo not given in full)
ED50 [1]: 5 µg/mL
LD99 [2]: 2 µg/mL
ED50 (Patiria pectinifera [3]): 50 µg/mL
Activity (Patiria pectinifera [6]): Active
Activity (Patiria pectinifera [7]): Active
Activity (Patiria pectinifera [4]): Active
HI [5]: 31400

CC(C)CC(=O)C[C@@](C)(O)[C@H]1CC[C@H]2[C@@H]3C[C@H](OC4O[C@H](CO)[C@@H](O)[C@H](OC5O[C@H](C)[C@@H](OC6O[C@H](C)[C@@H](O)[C@H](O)[C@H]6OC6O[C@H](C)[C@H](O)[C@H](O)[C@H]6O)[C@H](O)[C@H]5OC5O[C@H](C)[C@@H](O)[C@H](O)[C@H]5O)[C@H]4O)[C@H]4C[C@@H](OS(=O)(=O)[O-])CC[C@]4(C)C3=CC[C@@]21C.[Na+] (stereo not given in full)
ED50 [1]: 5 µg/mL
LD99 [2]: 5 µg/mL
ED50 (Patiria pectinifera [3]): 50 µg/mL
Activity (Patiria pectinifera [4]): Active

CC(C)CC(=O)C[C@@](C)(O)[C@H]1CC[C@H]2[C@@H]3C[C@H](OC4O[C@H](C)[C@@H](O)[C@H](OC5OC[C@@H](OC6O[C@H](CO)[C@H](O)[C@H](O)[C@H]6OC6O[C@H](C)[C@H](O)[C@H](OC7O[C@H](CO)[C@H](O)[C@H](O)[C@H]7O)[C@H]6O)[C@H](O)[C@H]5OC5O[C@H](C)[C@@H](O)[C@H](O)[C@H]5O)[C@H]4O)[C@H]4C[C@@H](OS(=O)(=O)[O-])CC[C@]4(C)C3=CC[C@@]21C.[Na+] (stereo not given in full)
ED50 [1]: 30 µg/mL
LD99 [2]: 10 µg/mL
ED50 (Patiria pectinifera [3]): 200 µg/mL
Activity (Patiria pectinifera [4]): Active
HI [5]: 5100

CC(C)C(C)C(=O)C[C@@](C)(O)[C@H]1CC[C@H]2[C@@H]3C[C@H](OC4O[C@H](C)[C@@H](O)[C@H](OC5OC[C@@H](OC6O[C@H](C)[C@@H](O)[C@H](O)[C@H]6OC6O[C@H](C)[C@H](O)[C@H](OC7O[C@H](C)[C@H](O)[C@H](O)[C@H]7O)[C@H]6O)[C@H](O)[C@H]5OC5O[C@H](C)[C@@H](O)[C@H](O)[C@H]5O)[C@H]4O)[C@H]4C[C@@H](OS(=O)(=O)[O-])CC[C@]4(C)C3=CC[C@@]21C.[Na+] (stereo not given in full)
ED50 [1]: 10 µg/mL
LD99 [2]: 5 µg/mL
ED50 (Patiria pectinifera [3]): 200 µg/mL
Activity (Patiria pectinifera [4]): Active
HI [5]: 10700

CC(C)=CC(=O)C[C@@](C)(O)[C@H]1CC[C@H]2[C@@H]3C[C@H](OC4O[C@H](C)[C@@H](O)[C@H](OC5OC[C@@H](OC6O[C@H](CO)[C@H](O)[C@H](O)[C@H]6OC6O[C@H](C)[C@H](O)[C@H](O)[C@H]6O)[C@H](O)[C@H]5OC5O[C@H](C)[C@@H](O)[C@H](O)[C@H]5O)[C@H]4O)[C@H]4C[C@@H](OS(=O)(=O)[O-])CC[C@]4(C)C3=CC[C@@]21C.[Na+] (stereo not given in full)
ED50 [1]: 15 µg/mL
LD99 [2]: 5 µg/mL
ED50 (Patiria pectinifera [3]): 100 µg/mL
Activity (Patiria pectinifera [4]): Active

CC(C)CC(=O)C[C@@](C)(O)[C@H]1CC[C@H]2[C@@H]3C[C@H](O[C@@H]4O[C@H](C)C(=O)[C@H](OC5O[C@H](C)[C@@H](OC6O[C@H](C)[C@H](O)[C@H](O)[C@H]6OC6O[C@H](C)[C@H](O)[C@H](O)[C@H]6O)[C@H](O)[C@H]5OC5O[C@H](C)[C@@H](O)[C@H](O)[C@H]5O)[C@H]4O)[C@H]4C[C@@H](OS(=O)(=O)[O-])CC[C@]4(C)C3=CC[C@@]21C.[Na+] (stereo not given in full)
ED50 [1]: 15 µg/mL
LD99 [2]: 5 µg/mL
ED50 (Patiria pectinifera [3]): 200 µg/mL
Activity (Patiria pectinifera [4]): Active
HI [5]: 17700

CC(C)=CC(=O)C[C@@](C)(O)[C@H]1CC[C@H]2[C@@H]3C[C@H](OC4O[C@H](CO)[C@@H](O)[C@H](OC5O[C@H](C)[C@@H](OC6O[C@H](C)[C@@H](O)[C@H](O)[C@H]6OC6O[C@H](C)[C@H](O)[C@H](O)[C@H]6O)[C@H](O)[C@H]5OC5O[C@H](C)[C@@H](O)[C@H](O)[C@H]5O)[C@H]4O)[C@H]4C[C@@H](OS(=O)(=O)[O-])CC[C@]4(C)C3=CC[C@@]21C.[Na+] (stereo not given in full)
ED50 [1]: 10 µg/mL
LD99 [2]: 5 µg/mL
ED50 (Patiria pectinifera [3]): 50 µg/mL
Activity (Patiria pectinifera [4]): Active

CC(C)CC(=O)C[C@@](C)(O)[C@H]1CC[C@H]2[C@@H]3C[C@H](OC4O[C@H](C)[C@@H](O)[C@H](OC5OC[C@@H](OC6O[C@H](C)[C@@H](O)[C@H](O)[C@H]6OC6O[C@H](C)[C@H](O)[C@H](OC7O[C@H](C)[C@H](O)[C@H](O)[C@H]7O)[C@H]6O)[C@H](O)[C@H]5OC5O[C@H](C)[C@@H](O)[C@H](O)[C@H]5O)[C@H]4O)[C@H]4C[C@@H](O)CC[C@]4(C)C3=CC[C@@]21C (stereo not given in full)
ED50 [1]: 50 µg/mL (≈ 38.6 µM)
LD99 [2]: 10 µg/mL
ED50 (Patiria pectinifera [3]): 100 µg/mL (≈ 77.2 µM)
Activity (Patiria pectinifera [4]): Active
HI [5]: < 2550

CC(C)C(C)C(=O)C[C@@](C)(O)[C@H]1CC[C@H]2[C@@H]3C[C@H](OC4O[C@H](C)[C@@H](O)[C@H](OC5OC[C@@H](OC6O[C@H](CO)[C@H](O)[C@H](O)[C@H]6OC6O[C@H](C)[C@H](O)[C@H](OC7O[C@H](C)[C@H](O)[C@H](O)[C@H]7O)[C@H]6O)[C@H](O)[C@H]5OC5O[C@H](C)[C@@H](O)[C@H](O)[C@H]5O)[C@H]4O)[C@H]4C[C@@H](OS(=O)(=O)[O-])CC[C@]4(C)C3=CC[C@@]21C.[Na+] (stereo not given in full)
ED50 [1]: 5 µg/mL
LD99 [2]: 2 µg/mL
ED50 (Patiria pectinifera [3]): 100 µg/mL
Activity (Patiria pectinifera [4]): Active
HI [5]: 21500

CC(C)CC(=O)C[C@@](C)(O)[C@H]1CC[C@H]2[C@@H]3C[C@H](OC4O[C@H](C)[C@@H](O)[C@H](OC5OC[C@@H](OC6O[C@H](C)[C@@H](O)[C@H](O)[C@H]6OC6O[C@H](C)[C@H](O)[C@H](OC7O[C@H](C)[C@H](O)[C@H](O)[C@H]7O)[C@H]6O)[C@H](O)[C@H]5OC5O[C@H](C)[C@@H](O)[C@H](O)[C@H]5O)[C@H]4O)[C@H]4C[C@@H](OS(=O)(=O)[O-])CC[C@]4(C)C3=CC[C@@]21C.[Na+] (stereo not given in full)
ED50 [1]: 15 µg/mL
LD99 [2]: 10 µg/mL
ED50 (Patiria pectinifera [3]): 200 µg/mL
Activity (Patiria pectinifera [4]): Active

CC(C)CC(=O)C[C@@](C)(O)[C@H]1CC[C@H]2[C@@H]3C[C@H](OC4O[C@H](C)[C@@H](O)[C@H](OC5OC[C@@H](OC6O[C@H](CO)[C@H](O)[C@H](O)[C@H]6OC6O[C@H](C)[C@H](O)[C@H](OC7O[C@H](C)[C@H](O)[C@H](O)[C@H]7O)[C@H]6O)[C@H](O)[C@H]5OC5O[C@H](C)[C@@H](O)[C@H](O)[C@H]5O)[C@H]4O)[C@H]4C[C@@H](OS(=O)(=O)[O-])CC[C@]4(C)C3=CC[C@@]21C.[Na+] (stereo not given in full)
ED50 [1]: 15 µg/mL
LD99 [2]: 5 µg/mL
ED50 (Patiria pectinifera [3]): 200 µg/mL
Activity (Patiria pectinifera [4]): Active
HI [5]: 11400

CC(=O)[C@H]1CC[C@H]2[C@@H]3C[C@H](OC4O[C@H](C)[C@@H](O)[C@H](OC5OC[C@@H](OC6O[C@H](CO)[C@H](O)[C@H](O)[C@H]6OC6O[C@H](C)[C@H](O)[C@H](O)[C@H]6O)[C@H](O)[C@H]5OC5O[C@H](C)[C@@H](O)[C@H](O)[C@H]5O)[C@H]4O)[C@H]4C[C@@H](OS(=O)(=O)[O-])CC[C@]4(C)C3=CC[C@]12C.[Na+] (stereo not given in full)
ED50 [1]: > 50 µg/mL
LD99 [2]: > 50 µg/mL
ED50 (Patiria pectinifera [3]): 100 µg/mL
Activity (Patiria pectinifera [4]): Active
HI [5]: < 2270

CC(C)CC(=O)C[C@@](C)(O)[C@H]1CC[C@H]2[C@@H]3C[C@H](OC4O[C@H](C)[C@@H](O)[C@H](OC5OC[C@@H](OC6O[C@H](C)[C@@H](O)[C@H](O)[C@H]6OC6O[C@H](C)[C@H](O)[C@H](O)[C@H]6O)[C@H](O)[C@H]5OC5O[C@H](C)[C@@H](O)[C@H](O)[C@H]5O)[C@H]4O)[C@H]4C[C@@H](OS(=O)(=O)O)CC[C@]4(C)C3=CC[C@@]21C.N (stereo not given in full)
ED50 [1]: 15 µg/mL
LD99 [2]: 5 µg/mL
ED50 (Patiria pectinifera [3]): 200 µg/mL
Activity (Patiria pectinifera [4]): Active
